Assay results: BigSolDB 2.1

O=[N+]([O-])c1cccc(Cl)c1Cl
solubility (mole fraction)
Conditions	in cyclohexane	in ethyl acetate	in isopropanol	in n-butanol	in n-heptane	in n-hexane	in n-propanol	in tetrachloromethane
278.15 K	0.0137	0.212	0.00992	0.0254	0.00633	0.00535	0.0222	0.0619
280.65 K	0.0156	0.269	0.0116	0.0331	0.00962	0.00888	0.0247	0.0811
283.15 K	0.0184	0.331	0.0148	0.0401	0.0128	0.0112	0.0275	0.097
285.65 K	0.0199	0.388	0.0169	0.0453	0.0146	0.0134	0.0295	0.11
288.15 K	0.0212	0.435	0.0199	0.0501	0.017	0.015	0.0318	0.12
290.65 K	0.0266	0.486	0.0243	0.0527	0.0212	0.0172	0.035	0.13
293.15 K	0.0317	0.521	0.0286	0.0563	0.0251	0.0214	0.0387	0.15
295.65 K	0.0377	0.569	0.0336	0.0589	0.0276	0.0231	0.0421	0.194
298.15 K	0.0421	0.592	0.0394	0.0614	0.0322	0.0245	0.0456	0.241
300.65 K	0.0474	0.645	0.0452	0.0645	0.0345	0.0277	0.0511	0.312
303.15 K	0.0549	0.682	0.05	0.0679	0.038	0.031	0.0575	0.38

O=[N+]([O-])c1ccc(Cl)c(Cl)c1
solubility (mole fraction)
Conditions	in cyclohexane	in ethyl acetate	in isopropanol	in n-butanol	in n-heptane	in n-hexane	in n-propanol	in tetrachloromethane
278.15 K	0.0568	0.249	0.0157	0.0389	0.0296	0.0293	0.0506	0.129
280.65 K	0.0632	0.332	0.0199	0.0443	0.0326	0.0363	0.0519	0.182
283.15 K	0.0703	0.405	0.0221	0.0486	0.0424	0.0425	0.0537	0.244
285.65 K	0.0774	0.463	0.0272	0.0542	0.0451	0.0476	0.0582	0.302
288.15 K	0.0865	0.541	0.0318	0.0593	0.0505	0.0518	0.0634	0.362
290.65 K	0.111	0.602	0.036	0.0665	0.0564	0.0572	0.0724	0.435
293.15 K	0.154	0.668	0.0439	0.0735	0.063	0.0634	0.0819	0.511
295.65 K	0.25	0.719	0.0615	0.0819	0.0662	0.0699	0.0935	0.572
298.15 K	0.343	0.778	0.0783	0.0999	0.0729	0.0824	0.115	0.644
300.65 K	0.511	0.822	0.0981	0.118	0.0908	0.115	0.139	0.722
303.15 K	0.751	0.866	0.124	0.136	0.132	0.173	0.173	0.792
